{"source": "patent US10632149B2", "about": "“Drug based on maghemite for simultaneous reduction of gastrointestinal sodium resorption and phosphate resorption” (CHARITÉ-UNIVERSITAETSMEDIZIN BERLIN, priority 2014, dated 2020)", "test_system": "healthy rats", "settings": "rat, in vivo", "method": "Male rats of the breed Sprague Dawley from Charles River were used at the beginning of the experiment with weight of 200 g (n=8) per group listed below. […] Then for another 4 weeks (week 2-5), the feed mentioned above ad libitum with active substance additive. On the last day of each experiment week, the animals were kept individually in a metabolic cage for 24 hours (day 6 to day 7). Feces and urine were collected. Blood was obtained only on the last collection day. Blood and urine samples were examined by Synlab GmbH.\nThe groups received as follows from week 2-5 additives per 100 g feed Group A control—no additives\nGroup B adjuvants—addition of 0.2 g of mannitol and each 0.9 g of inulin and gum arabic\nGroup D Velphoro®—based on iron as an additive to the feed 250 mg of iron\nGroup E Fosrenol®—based on lanthanum as an additive to the feed 250 mg lanthanum\nGroup F Renvela®—based on Sevelamer carbonate 500 mg"}
{"substance": "sucroferric oxyhydroxide [Velphoro®]", "values": [{"measurement": "Feces excretion 24 hours Weight", "result": "17.1 ± 6.2", "unit": "g"}, {"measurement": "Urine volumes 24 hours", "result": "16.1 ± 3.6", "unit": "mL"}]}
